# Measured values as given in article PMC8900659 (Nature chemical biology, 2021).
# What was measured:
# [1] = tested on: NRAS mutant OCI-AML3 cells; experiment: pERK Western blot; conditions: 4 h; Palm M 10 μM, ABD957 500 nM, PD901 10 nM
# [2] = tested on: dynamically palmitoylated proteins; experiment: MS-based global dynamic palmitoylation profiling in OCI-AML3 cells; conditions: Palm M 10 μM, ABD957 500 nM, 1 h chase
# [3] = tested on: KRAS mutant NB-4 cells; experiment: pERK Western blot; conditions: 4 h; Palm M 10 μM, ABD957 500 nM, PD901 10 nM
# [4] = tested on: ABHD17-DKO cells; experiment: pERK Western blot; format: cell-based, human; conditions: OCI-AML3 ABHD17-DKO, 4 h
# [5] = tested on: serine hydrolases; experiment: in situ MS-ABPP in OCI-AML3 cells, global selectivity; conditions: in situ 2 h; ABD957 500 nM, Palm M 10 μM, HDFP 20 μM
# [6] = tested on: wild type N-Ras palmitoylation; experiment: MS-based dynamic palmitoylation profiling in NB-4 cells; format: cell-based, human
# [7] = molecular target: LYPLA1 (Homo sapiens, UniProt O75608); experiment: in vitro MS-ABPP, OCI-AML3 proteome; format: biochemical; conditions: 1 and 10 μM, 30 min, particulate fraction
# Chain of LYPLA1 (O75608 whole entry): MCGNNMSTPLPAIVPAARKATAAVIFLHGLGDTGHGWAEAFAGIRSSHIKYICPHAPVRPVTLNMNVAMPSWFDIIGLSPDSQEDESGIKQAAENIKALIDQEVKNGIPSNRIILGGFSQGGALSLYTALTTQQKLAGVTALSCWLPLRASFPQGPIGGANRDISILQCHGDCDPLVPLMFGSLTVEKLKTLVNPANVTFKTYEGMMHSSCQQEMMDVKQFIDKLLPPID
# [8] = molecular target: LYPLA2 (Homo sapiens, UniProt O95372); experiment: in vitro MS-ABPP, OCI-AML3 proteome; format: biochemical; conditions: 1 and 10 μM, 30 min, particulate fraction
# Chain of LYPLA2 (O95372 whole entry): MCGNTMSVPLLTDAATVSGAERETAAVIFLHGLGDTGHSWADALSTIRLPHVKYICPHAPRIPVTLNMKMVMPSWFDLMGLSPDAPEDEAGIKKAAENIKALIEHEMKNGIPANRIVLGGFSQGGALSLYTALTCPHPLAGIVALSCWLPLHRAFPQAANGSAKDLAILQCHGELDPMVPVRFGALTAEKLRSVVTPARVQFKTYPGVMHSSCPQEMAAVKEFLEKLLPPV
# [9] = tested on: ABHD17s; experiment: in vitro MS-ABPP, OCI-AML3 proteome; format: biochemical, human; conditions: 1 and 10 μM, 30 min, particulate fraction
# [10] = tested on: ABHD17A/B/C; experiment: targeted MS-ABPP in situ time-course in ONK cells; format: cell-based, human; conditions: 1 μM
# [11] = molecular target: T1, ABHD10 (Homo sapiens, UniProt Q9NUJ1); experiment: in vitro MS-ABPP, OCI-AML3 proteome; format: biochemical; conditions: 1 and 10 μM, 30 min, particulate fraction
# T1 sequence (Q9NUJ1 53-306): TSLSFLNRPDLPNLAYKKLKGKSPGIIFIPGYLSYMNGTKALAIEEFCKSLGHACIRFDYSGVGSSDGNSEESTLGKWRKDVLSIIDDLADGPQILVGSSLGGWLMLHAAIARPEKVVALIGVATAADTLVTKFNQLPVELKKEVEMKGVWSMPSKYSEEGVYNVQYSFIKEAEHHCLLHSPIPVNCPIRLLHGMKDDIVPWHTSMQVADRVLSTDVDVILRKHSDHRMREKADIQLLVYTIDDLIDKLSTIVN
structure (smiles),measurement,setting,value
"CCCCCCCCCC[C@@H]1C(=O)O[C@H]1CCCCS(=O)(=O)CCCN(C)C [Palm M, Palmostatin M]",ERK phosphorylation,[1],substantially blocked
same,stabilization of the 22 dynamically palmitoylated proteins,[2],most of these proteins were stabilized
same,ERK phosphorylation,[3],but not in KRAS mutant NB-4 cells
same,ERK phosphorylation,[4],maintained similar activity
same,global serine hydrolase selectivity in cells,[5],widespread serine hydrolase inhibition
same,sensitivity of dynamic palmitoylation of wild type N-Ras,[6],fully preserved
CN(C)S(=O)(=O)c1cnn(C(=O)N2CCN(Cc3ccc(Cl)cc3)CC2)c1 [compound 5],inhibition of LYPLA1,[7],inhibition
same,inhibition of LYPLA2,[8],inhibition
same,inhibition of ABHD17s,[9],confirmed inhibition
C[C@H]1CN(Cc2ccc(C(F)(F)F)cc2N2CCOCC2)CCN1C(=O)n1ccc(S(=O)(=O)N(C)C)n1 [compound 8],sustained inhibition of ABHD17A/B/C over 72 h,[10],did not produce sustained inhibition
same,ABHD10 as off-target,[11],introducing ABHD10
O=C(NOC[C@H](O)CO)c1ccc(F)c(F)c1Nc1ccc(I)cc1F [PD901],ERK phosphorylation,[1],blocked ERK phosphorylation in both cell lines
same,ERK phosphorylation,[3],blocked ERK phosphorylation in both cell lines
